Values quoted from earlier work in patent publication US9333175B2, “Controlled release levetiracetam formulations and methods for producing the same” (Mylan Inc., priority 2010, dated 2016).

Conditions: A. J. Gower et al., Eur. J. Pharmacol., 222, 1992, 193-203

Structure (SMILES) | activity in the treatment of epilepsy
CC[C@@H](C(N)=O)N1CCCC1=O [Levetiracetam, (S)-(−)-alpha-ethyl-2-oxo-1-pyrrolidine acetamide] | effective in the treatment of epilepsy
CC[C@H](C(N)=O)N1CCCC1=O [(R)-(+)-alpha-ethyl-2-oxo-1-pyrrolidine acetamide] | completely lacks activity
